Experimental data taken from article PMC5736782, “The Differential Absorption of a Series of P-Glycoprotein Substrates in Isolated Perfused Lungs from Mdr1a/1b Genetic Knockout Mice can be Attributed to Distinct Physico-Chemical Properties: an Insight into Predicting Transporter-Mediated, Pulmonary Specific Disposition” (Pharmaceutical Research, 2017).
Like-named read-outs stand apart in the source and are kept apart here.

Experiments:
P-gp (Mdr1a/1b) = assay: Pilot in-vivo intra-nasal instillation, lung clearance
Procedure: Separate mice were sacrificed (n=3) at each time-point post-instillation (5 min, 1 hr, 3 hr, 5 hr, 7 hr and 12 hr). Lung tissue was homogenised and subjected to solute extraction approaches priod to LC-MS/MS quantitation.

[1] = Multi-lamellar liposome vesicle (MLV) partitioning; type: physicochemical; conditions: (C0−CS)/C0, 1 μg/mL, 4 h, 37°C, PBS pH 7.4
Procedure: MLVs were formed as previously described ([20]). Briefly, solutions of 8 mg phosphatidylcholine and 2 mg phosphatidylglycerol in 10 mL chloroform were completely dried to a lipid film (rotation under vacuum).
These preparations were then incubated at 37°C for 4 h under shaking conditions to allow equilibration of compound between the lipid and aqueous fractions. The MLVs were then pelleted and 100 μL of supernatant removed for analysis by radiometric or LC-MS/MS methods as described above. Partitioning into the MLVs was determined according to Eq. 3:3 MLVpartitioning=C0−CS/C0
where C0 is the initial compound concentration (1 μg/mL) and CS is the compound concentration present in the aqueous supernatant at the end of 4 h incubation.

[2] = test system: P-glycoprotein (Mdr1a/Mdr1b) in isolated perfused mouse lung; assay: Isolated perfused mouse lung (IPML) airway-to-perfusate absorption, Mdr1a/1b (+/+) vs (−/−)
Procedure: The atria and the lower half of the heart were cut to allow the free flow of perfusate. The lungs were removed and suspended vertically in a custom water-jacketed glass thorax (Radleys, Essex, UK) maintained at 37°C.
Following dosing of compound into the IPML airways serial samples (250 μL) were collected for bioanalysis from the 10 mL recirculating perfusate reservoir. Each sample collected from the reservoir was replaced with an equal volume of fresh warmed, oxygenated perfusate. Upon termination of the experiment the dose solutions, apparatus washings and perfusate samples were collected for mass balance calculations enabling determination of the actual total dose delivered to the lungs.
Radioactive compounds were directly analysed by liquid scintillation counting. Volumes of 50 μL perfusate samples were mixed with 3 mL of Scintisafe 3 Liquid Scintillation Fluid (Fisher, UK) and transferred to vials for scintillation counting using a TriCarb 2900TR (Packard Bioscience, USA).
After accounting for the mass of compound removed at each sample point, plots of the cumulative ‘%deposited dose absorbed’ versus ‘time’ were generated and subject to nonlinear regression analysis according to a first-order absorption one-compartment accumulating model (Eq. 1) to generate estimates for the extent (F) and rate (Ka) of absorption from the IPML airways to the recirculating perfusate.
The data was also subject to standard non-compartmental analysis, specifically Area Under Curve (AUC0–30 min) of ‘%deposited dose absorbed’ versus ‘time’ (units: %Dose.min) and reflecting for the exclusively accumulating perfusate ‘compartment’ the exposure arising from the IPML absorption process alone.

[3] = Immobilised artificial membrane (IAM) chromatography; type: physicochemical; conditions: extrapolated to 100% water; mean of four experiments
Procedure: IAM chromatography provided an experimental measure of substrate membrane affinity and phospholipid interaction. The IAM column (Regis Technologies Inc., Hichrom, Reading, UK; IAM.PC.DD2 10 cm x 4.6 mm ID column) was run under isocratic eluting conditions with the retention of all compounds determined under three mobile phase conditions: 10%, 20% and 30% acetonitrile in water, and from which the theoretical retention time in 100% water was calculated by linear regression. LogK^IAM values were calculated according to Eq. 2:2 LogK^IAM=LogTr−T0/T0
where Tr and T0 are respectively the retention times of the substrate in 100% water and of the unretained compound, i.e. eluting within the solvent front of 75 s in all experiments.

P-gp [4] = test system: P-gp; set-up: method as in PMID 23670704; conditions: IPRL and IPML models; cited from earlier work
[5] = test system: P-gp (Mdr1a/1b) in mouse intestinal segments; assay: Ussing chamber intestinal permeability, ileal segments Mdr1a/1b (+/+) vs (−/−); conditions: for Mdr1a/1b (−/−) Permeability coefficient: P-gp knockout intestinal segments; for Mdr1a/1b (−/−) Permeability coefficient / Mdr1a/1b (+/+) Permeability coefficient: mucosal to serosal, 50 μM, 180 min; for Ratio Permeability (−/−): (+/+): intestinal Papp KO:WT; for Mdr1a/1b (+/+) Permeability coefficient: wild-type intestinal segments
Procedure: (§1) The bathing fluid for both mucosal and serosal surfaces (3 mL volume in each chamber) comprised oxygenated Krebs-Henseleit buffer maintained at 37°C (heating block) under stirred conditions (gas flow manifold). […] Any intestinal segments presenting an initial TEER of lower than 80 Ω.cm^2 were discarded prior to the experiment, likewise any segments whose TEER decreased by more than 10% over the course of the experiment were excluded.
(§2) Thereafter permeability coefficients were determined according to Eq. 4:4 ρ=dM/dt/A^∗C0

mouse Mdr1b = mouse Mdr1b (Mus musculus, UniProt P06795); assay: Gentest ABC transporter membrane ATPase assay; conditions: 0–300 μM, 30 min, 37°C
Excerpt: (§3) The Gentest ATPase assay (Corning, Germany) was used to investigate the binding kinetics of the panel of P-gp substrates against membranes constituted to display human MDR1, mouse Mdr1a, mouse Mdr1b and mouse Bcrp. The assays measure the accumulation of inorganic phosphate (absorbance at 800 nm) produced in the breakdown of ATP to ADP. […] The assays were used in accordance with the manufacturer’s protocol to calculate (GraphPad Prism) the Michaelis-Menten parameters Km and VMAX. For the assay test compounds were serially diluted to produce an assay concentration range of 0–300 μM with the kinetics of ATP turnover examined over 30 min at 37°C.

mouse Mdr1a = mouse Mdr1a (Mus musculus, UniProt P21447); assay: Gentest ABC transporter membrane ATPase assay; conditions: 0–300 μM, 30 min, 37°C
Excerpt: as §3

human MDR1 = human MDR1 (Homo sapiens, UniProt P08183); assay: Gentest ABC transporter membrane ATPase assay; conditions: ATPase, 0–300 μM, 30 min, 37°C
mouse Bcrp = target: T1, mouse Bcrp (Mus musculus, UniProt Q7TMS5); assay: Gentest ABC transporter membrane ATPase assay; type: biochemical
T1 construct: purchased Corning (Gentest), Germany
T1 sequence (Q7TMS5 1-657): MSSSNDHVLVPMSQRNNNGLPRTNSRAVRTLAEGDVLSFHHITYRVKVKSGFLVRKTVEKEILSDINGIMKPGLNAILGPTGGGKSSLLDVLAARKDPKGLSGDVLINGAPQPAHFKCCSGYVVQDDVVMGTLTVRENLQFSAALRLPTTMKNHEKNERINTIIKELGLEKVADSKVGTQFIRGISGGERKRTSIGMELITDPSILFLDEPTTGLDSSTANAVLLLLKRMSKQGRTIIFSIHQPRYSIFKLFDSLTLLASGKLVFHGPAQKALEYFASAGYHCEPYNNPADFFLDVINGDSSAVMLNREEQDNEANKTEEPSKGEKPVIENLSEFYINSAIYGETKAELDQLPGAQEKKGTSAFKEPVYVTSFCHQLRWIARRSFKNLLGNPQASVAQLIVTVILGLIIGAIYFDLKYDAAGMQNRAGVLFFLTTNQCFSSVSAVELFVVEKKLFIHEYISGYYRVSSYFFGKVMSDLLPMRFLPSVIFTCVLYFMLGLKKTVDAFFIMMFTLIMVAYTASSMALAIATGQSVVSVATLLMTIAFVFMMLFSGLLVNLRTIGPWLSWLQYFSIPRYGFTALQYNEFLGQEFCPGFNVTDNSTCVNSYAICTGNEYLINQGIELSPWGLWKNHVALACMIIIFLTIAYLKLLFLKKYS
Excerpt: as §3

P-gp [6] = conditions: IPRL; cited from earlier work
human MDR1 (P-gp) = human MDR1 (P-gp) (Homo sapiens, UniProt P08183); assay: Gentest ABC transporter membrane ATPase assay; conditions: human
[7] = set-up: method as in PMID 12761811; conditions: cited from earlier work
Caco-2 cell model = test system: Caco-2 cell model; set-up: method as in PMID 12761811; conditions: cited from earlier work
[8] = test system: P-gp (Mdr1a/1b) in mouse intestinal segments
Procedure: as §1, §2

[9] = categorisation from IPML outcomes
[10] = knockout IPML, within 30 minutes
[11] = wild-type IPML, within 30 minutes
[12] = ATPase, 0 indicates no enzyme turnover
[13] = knockout IPML, % deposited dose absorbed vs time in perfusate

Sequence of human MDR1 (P08183 whole entry): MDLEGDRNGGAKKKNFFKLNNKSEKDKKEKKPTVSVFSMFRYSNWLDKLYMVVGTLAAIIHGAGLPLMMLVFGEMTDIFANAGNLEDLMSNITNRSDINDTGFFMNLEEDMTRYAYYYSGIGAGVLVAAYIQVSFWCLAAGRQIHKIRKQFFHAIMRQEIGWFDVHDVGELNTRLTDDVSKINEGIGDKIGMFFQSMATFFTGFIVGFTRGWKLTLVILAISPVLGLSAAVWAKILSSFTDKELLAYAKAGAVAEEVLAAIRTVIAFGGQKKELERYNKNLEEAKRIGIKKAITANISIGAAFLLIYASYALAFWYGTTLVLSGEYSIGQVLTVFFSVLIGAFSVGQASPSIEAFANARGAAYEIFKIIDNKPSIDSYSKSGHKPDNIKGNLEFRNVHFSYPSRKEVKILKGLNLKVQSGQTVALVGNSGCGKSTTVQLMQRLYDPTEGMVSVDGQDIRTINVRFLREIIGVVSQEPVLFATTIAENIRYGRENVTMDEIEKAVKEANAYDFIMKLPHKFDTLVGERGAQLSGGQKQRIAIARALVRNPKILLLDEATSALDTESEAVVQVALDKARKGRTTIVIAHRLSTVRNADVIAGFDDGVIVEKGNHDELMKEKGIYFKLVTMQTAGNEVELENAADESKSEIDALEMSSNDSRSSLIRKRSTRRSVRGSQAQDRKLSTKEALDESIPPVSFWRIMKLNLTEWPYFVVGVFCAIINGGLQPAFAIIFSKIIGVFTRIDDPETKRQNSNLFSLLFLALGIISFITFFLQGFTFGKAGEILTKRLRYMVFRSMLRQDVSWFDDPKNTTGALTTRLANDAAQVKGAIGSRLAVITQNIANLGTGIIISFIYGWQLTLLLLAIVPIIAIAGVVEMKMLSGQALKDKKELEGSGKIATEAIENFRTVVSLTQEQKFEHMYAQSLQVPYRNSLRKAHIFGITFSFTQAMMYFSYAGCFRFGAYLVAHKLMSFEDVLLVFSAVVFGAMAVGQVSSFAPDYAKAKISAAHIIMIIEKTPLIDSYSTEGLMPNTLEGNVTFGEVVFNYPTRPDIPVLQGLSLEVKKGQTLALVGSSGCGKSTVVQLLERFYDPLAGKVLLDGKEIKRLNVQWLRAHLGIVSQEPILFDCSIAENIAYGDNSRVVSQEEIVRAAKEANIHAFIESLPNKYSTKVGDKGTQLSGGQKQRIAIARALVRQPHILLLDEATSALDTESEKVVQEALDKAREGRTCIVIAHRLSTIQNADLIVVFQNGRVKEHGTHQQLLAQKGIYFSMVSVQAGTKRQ
Sequence of mouse Mdr1a (P21447 whole entry): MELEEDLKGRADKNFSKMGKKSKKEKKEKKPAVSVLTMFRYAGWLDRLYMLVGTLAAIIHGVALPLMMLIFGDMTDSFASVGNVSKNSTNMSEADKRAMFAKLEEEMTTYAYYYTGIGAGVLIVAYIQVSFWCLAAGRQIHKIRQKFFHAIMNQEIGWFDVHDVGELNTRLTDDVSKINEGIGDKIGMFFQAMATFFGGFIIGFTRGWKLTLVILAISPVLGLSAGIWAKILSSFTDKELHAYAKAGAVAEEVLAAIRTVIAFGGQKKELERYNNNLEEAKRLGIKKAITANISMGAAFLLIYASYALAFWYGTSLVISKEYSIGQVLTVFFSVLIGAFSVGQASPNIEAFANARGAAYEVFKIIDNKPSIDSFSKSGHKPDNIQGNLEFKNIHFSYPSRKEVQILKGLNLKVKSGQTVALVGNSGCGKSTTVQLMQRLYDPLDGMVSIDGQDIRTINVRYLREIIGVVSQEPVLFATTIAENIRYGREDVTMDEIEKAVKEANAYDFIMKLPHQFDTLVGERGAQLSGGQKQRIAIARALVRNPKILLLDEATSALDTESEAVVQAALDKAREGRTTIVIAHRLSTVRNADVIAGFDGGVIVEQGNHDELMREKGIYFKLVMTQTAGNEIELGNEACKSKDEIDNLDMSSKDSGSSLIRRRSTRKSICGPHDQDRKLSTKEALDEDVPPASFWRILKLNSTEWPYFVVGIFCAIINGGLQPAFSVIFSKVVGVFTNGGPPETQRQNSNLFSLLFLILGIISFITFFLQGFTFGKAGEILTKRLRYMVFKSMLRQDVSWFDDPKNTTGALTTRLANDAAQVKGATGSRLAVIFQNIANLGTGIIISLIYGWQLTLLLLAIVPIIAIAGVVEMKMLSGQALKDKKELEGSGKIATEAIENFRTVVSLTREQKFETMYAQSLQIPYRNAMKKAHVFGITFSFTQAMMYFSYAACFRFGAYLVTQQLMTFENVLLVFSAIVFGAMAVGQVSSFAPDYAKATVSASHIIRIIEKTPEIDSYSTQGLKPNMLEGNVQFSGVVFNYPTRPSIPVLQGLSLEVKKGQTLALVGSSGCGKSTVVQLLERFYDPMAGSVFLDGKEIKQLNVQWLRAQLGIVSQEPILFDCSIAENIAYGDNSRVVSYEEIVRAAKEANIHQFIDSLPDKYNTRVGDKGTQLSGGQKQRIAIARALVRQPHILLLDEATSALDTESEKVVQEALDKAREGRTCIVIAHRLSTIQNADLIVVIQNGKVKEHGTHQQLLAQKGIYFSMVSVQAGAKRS
Sequence of mouse Mdr1b (P06795 whole entry): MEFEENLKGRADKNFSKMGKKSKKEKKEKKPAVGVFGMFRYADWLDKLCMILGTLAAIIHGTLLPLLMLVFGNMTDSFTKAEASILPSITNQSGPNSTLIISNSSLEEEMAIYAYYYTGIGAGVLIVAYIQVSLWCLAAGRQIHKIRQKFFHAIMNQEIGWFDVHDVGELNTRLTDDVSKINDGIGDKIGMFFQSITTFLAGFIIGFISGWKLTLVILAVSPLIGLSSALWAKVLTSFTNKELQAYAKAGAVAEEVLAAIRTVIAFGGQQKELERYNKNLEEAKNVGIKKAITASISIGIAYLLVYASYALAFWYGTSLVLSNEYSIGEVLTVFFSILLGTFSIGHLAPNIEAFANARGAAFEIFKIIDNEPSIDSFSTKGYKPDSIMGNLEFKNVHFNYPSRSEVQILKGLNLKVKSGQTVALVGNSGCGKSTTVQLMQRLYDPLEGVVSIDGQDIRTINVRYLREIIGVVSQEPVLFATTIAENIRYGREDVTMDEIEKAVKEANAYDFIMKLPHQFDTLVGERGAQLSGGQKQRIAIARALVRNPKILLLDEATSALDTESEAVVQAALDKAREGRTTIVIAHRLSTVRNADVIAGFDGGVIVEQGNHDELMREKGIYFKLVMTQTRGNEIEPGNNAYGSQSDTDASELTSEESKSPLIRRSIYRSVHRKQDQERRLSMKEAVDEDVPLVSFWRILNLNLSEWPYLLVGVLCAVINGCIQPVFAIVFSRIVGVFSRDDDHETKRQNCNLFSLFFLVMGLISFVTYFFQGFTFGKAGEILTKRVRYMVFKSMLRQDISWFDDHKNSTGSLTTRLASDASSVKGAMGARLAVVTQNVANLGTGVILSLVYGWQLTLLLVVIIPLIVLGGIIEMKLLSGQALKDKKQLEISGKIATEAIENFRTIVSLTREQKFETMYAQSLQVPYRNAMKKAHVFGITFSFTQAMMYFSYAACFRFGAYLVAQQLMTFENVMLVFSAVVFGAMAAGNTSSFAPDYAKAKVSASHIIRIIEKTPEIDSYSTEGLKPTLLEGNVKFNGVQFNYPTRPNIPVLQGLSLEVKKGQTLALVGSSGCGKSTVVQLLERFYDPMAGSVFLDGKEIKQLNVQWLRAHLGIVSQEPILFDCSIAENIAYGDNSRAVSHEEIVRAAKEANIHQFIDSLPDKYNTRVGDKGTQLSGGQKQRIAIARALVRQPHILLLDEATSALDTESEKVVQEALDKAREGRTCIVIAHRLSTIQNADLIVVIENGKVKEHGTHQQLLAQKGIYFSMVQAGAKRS
Sequence of human MDR1 (P-gp) (P08183 whole entry): as the sequence (P08183 whole entry) above

SMILES | MLV Partitioning [1] | Group (impact of Mdr1a/1b knockout on IPML absorption) [2, 9] | Mdr1a/1b (-/-) % Deposited Dose absorbed [2, 10] | Mdr1a/1b (+/+) % Deposited Dose absorbed [2, 11] | LogK^IAM [3] | effect of P-gp inhibition (GF120918) upon pulmonary absorption (P-gp [4]) | Mdr1a/1b (−/−) Permeability coefficient [5] | Ratio Permeability (−/−): (+/+) [5] | Mdr1a/1b (+/+) Permeability coefficient [5] | Km (mouse Mdr1b) | Vmax (mouse Mdr1b) | Km (mouse Mdr1a) | Vmax (mouse Mdr1a) | Vmax (human MDR1) | Vmax (mouse Bcrp; [12]) | effect of co-administered GF120918 upon pulmonary absorption (P-gp [6]) | Mdr1a/1b (-/-) AUC(0-30) [2, 13] | Mdr1a/1b (+/+) ‘F’ estimate by model fit [95% CI) ([2]; male, mouse) | Mdr1a/1b (-/-) ‘F’ estimate by model fit [95% CI) ([2]; male, mouse) | Group (impact of Mdr1a/1b knockout on IPML absorption) [2] | further results
COC(=O)c1ccccc1-c1c2ccc(=N)cc-2oc2cc(N)ccc12.Cl [Rh-123, rhodamine-123] | 0.82 | GROUP B | 33.2% | 20.7% | 1.30 | increased | 22.55 ± 2.24 cm/s (x10^−6) | 2.49 | 9.06 ± 1.81 cm/s (x10^−6) | 2.2 µM | 29.7 µM/min | 6 µM | 35.2 µM/min | 36.3 µM/min | 18.5 µM/min | significantly increased | – | – | – | – | t^1/2 for the initial decline of lung clearance, KO (P-gp (Mdr1a/1b); mouse, in vivo): 107 min; t^1/2 for the initial decline of lung clearance, WT (P-gp (Mdr1a/1b); mouse, in vivo): 136 min; t^1/2 terminal decline phase of lung clearance (P-gp (Mdr1a/1b); mouse, in vivo): 500 min; Mdr1a/1b (+/+) AUC(0-30) [2]: 376 %.min; Mdr1a/1b (+/+) ‘F’ estimate by model fit [95% CI) [2]: 23.5 [19.9 to 27.1]; Mdr1a/1b (-/-) AUC(0-30) [2]: 712 %.min; Mdr1a/1b (-/-) ‘F’ estimate by model fit [95% CI) [2]: 30.6 [27.6 to 33.5]; Ratio AUCs (-/-) : (+/+) ([2]; mouse): 1.89; Km (human MDR1): 2.2 µM; Km (mouse Bcrp; [12]): 110 µM; interaction with Bcrp (ATP turnover) (mouse Bcrp; mouse Bcrp membrane model): showed evidence of interactions with Bcrp
COc1cc2c(c(OC)c1OC)-c1ccc(OC)c(=O)cc1[C@@H](NC(C)=O)CC2 [Colchicine, colchicine] | 0.86 | GROUP B | 25.4% | 17.7% | 1.30 | – | 14.95 ± 3.18 cm/s (x10^−6) | 2.16 | 6.93 ± 3.15 cm/s (x10^−6) | 7.7 µM | 28.4 µM/min | 9.1 µM | 22.7 µM/min | 16.6 µM/min | 0 µM/min | – | 571 %.min | 16.6 [14.7 to 18.4] | 23.3 [20.9 to 25.7] | – | Ratio AUCs (-/-) : (+/+) ([2]; IPML KO:WT): 1.43; Mdr1a/1b (+/+) AUC(0-30) ([2]; wild-type IPML, % deposited dose absorbed vs time in perfusate): 398 %.min; Km at 30 min (human MDR1 (P-gp)): 15.4 µM
CC(C)(C)NCC(O)c1cc(O)cc(O)c1 (centres unmarked) [terbutaline] | – | – | – | – | – | – | – | – | – | – | – | – | – | – | – | – | – | – | – | – | permeability across the lung [7]: high permeability; Papp (Caco-2 cell model): < 1 ×10⁻⁶ cm/s
CC[C@@]1([C@@H]2O[C@@H]([C@H]3O[C@@](O)(CO)[C@H](C)C[C@@H]3C)C[C@@H]2C)CC[C@H]([C@]2(C)CC[C@]3(C[C@H](O)[C@@H](C)[C@@H]([C@@H](C)[C@@H](OC)[C@H](C)C(=O)O)O3)O2)O1 [Monensin, monensin] | 0.68 | – | 38.9% | 36.5% | 1.32 | – | – | – | – | – | 42.3 µM/min | – | 27.6 µM/min | – | 0 µM/min | – | 722 %.min | 35.8 [28.0 to 43.6] | 33.7 [27.7 to 39.6] | GROUP A | Mdr1a/1b (−/−) Permeability coefficient [8]: 19.06 ± 2.41 cm/s (x10^−6)
C[C@H]1O[C@@H](O[C@H]2[C@@H](O)C[C@H](O[C@H]3[C@@H](O)C[C@H](O[C@H]4CC[C@@]5(C)[C@H](CC[C@@H]6[C@@H]5C[C@@H](O)[C@]5(C)[C@@H](C7=CC(=O)OC7)CC[C@]65O)C4)O[C@@H]3C)O[C@@H]2C)C[C@H](O)[C@@H]1O [Digoxin, digoxin] | 0.30 | – | – | – | 0.92 | remained unaffected | 20.94 ± 2.94 cm/s (x10^−6) | – | 6.04 ± 1.46 cm/s (x10^−6) | – | 44.1 µM/min | – | 26.7 µM/min | 19.7 µM/min | 0 µM/min | no effect | – | – | – | – | lung levels 1 hr post-instillation, wild-type mice (P-gp (Mdr1a/1b); intra-nasal 976 ng, Mdr1a/1b +/+): 1.57 % of the nominal instilled dos; lung levels 1 hr post-instillation, knockout mice (P-gp (Mdr1a/1b); intra-nasal 976 ng, Mdr1a/1b -/-): 0.94 % of the nominal instilled dos; lung levels after 1 h post-instillation (P-gp (Mdr1a/1b); intra-nasal, WT and KO mice): undetectable; Mdr1a/1b (+/+) ‘F’ estimate by model fit [95% CI) ([2]; male, mouse, 50 μM): 44.0 [37.2 to 50.8]; Mdr1a/1b (-/-) ‘F’ estimate by model fit [95% CI) ([2]; male, mouse, 50 μM): 49.8 [38.4 to 61.3]; Mdr1a/1b (+/+) % Deposited Dose absorbed ([2]; male, mouse, 30 min, 50 μM): 40.1%; Mdr1a/1b (-/-) % Deposited Dose absorbed ([2]; male, mouse, 30 min, 50 μM): 41.8%
CC(C)(C)NCC(O)c1ccc(O)c(CO)c1 (centres unmarked) [Salbutamol, salbutamol] | 0.88 | – | – | – | 1.47 | – | – | – | 10.6 ± 2.30 cm/s (x10^−6) | – | 49.1 µM/min | – | 52.3 µM/min | 45.6 µM/min | 0 µM/min | – | – | – | – | GROUP B | Mdr1a/1b (+/+) ‘F’ estimate by model fit [95% CI) ([2]; male, mouse, 50 μM): 24.9 [21.8 to 28.1]; Mdr1a/1b (-/-) ‘F’ estimate by model fit [95% CI) ([2]; male, mouse, 50 μM): 30.2 [28.2 to 32.2]; Mdr1a/1b (−/−) Permeability coefficient [8]: 14.90 ± 2.16 cm/s (x10^−6)
